According to ChEMBL document CHEMBL5226284, “Small Molecule Inhibitors Targeting Biosynthesis of Ceramide, the Central Hub of the Sphingolipid Network” (J Med Chem, 2021):
One block for each compound: values may come before it.

What was measured:
[1] = molecular target: T1, Ceramide synthase 2 (Homo sapiens, UniProt Q96G23); test: Inhibition of human CerS2
T1 sequence (Q96G23 whole entry): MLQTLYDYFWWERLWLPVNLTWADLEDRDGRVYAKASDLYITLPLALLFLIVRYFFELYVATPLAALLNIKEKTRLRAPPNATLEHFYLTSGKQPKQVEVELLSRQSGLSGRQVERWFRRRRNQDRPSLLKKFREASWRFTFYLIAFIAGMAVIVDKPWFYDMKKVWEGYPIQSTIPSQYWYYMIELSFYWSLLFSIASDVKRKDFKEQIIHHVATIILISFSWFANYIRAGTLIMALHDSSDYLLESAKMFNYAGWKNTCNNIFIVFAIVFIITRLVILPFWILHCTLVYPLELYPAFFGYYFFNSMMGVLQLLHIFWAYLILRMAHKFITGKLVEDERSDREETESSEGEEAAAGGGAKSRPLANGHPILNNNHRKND

[2] = molecular target: Ceramide synthase 2 (Mus musculus, UniProt Q924Z4); test: Inhibition of mouse CerS2
Sequence of Ceramide synthase 2 (Mus musculus, UniProt Q924Z4) (Q924Z4 whole entry): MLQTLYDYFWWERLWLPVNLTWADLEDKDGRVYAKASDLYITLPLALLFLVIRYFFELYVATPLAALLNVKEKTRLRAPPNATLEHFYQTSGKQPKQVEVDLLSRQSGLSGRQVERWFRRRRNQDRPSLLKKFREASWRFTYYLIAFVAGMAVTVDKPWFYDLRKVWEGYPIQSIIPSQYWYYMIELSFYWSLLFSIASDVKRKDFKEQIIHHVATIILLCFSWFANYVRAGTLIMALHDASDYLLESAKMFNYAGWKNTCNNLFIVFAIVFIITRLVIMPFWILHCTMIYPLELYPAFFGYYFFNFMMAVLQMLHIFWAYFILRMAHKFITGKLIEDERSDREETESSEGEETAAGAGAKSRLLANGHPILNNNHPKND

[3] = molecular target: Ceramide synthase 4 (Homo sapiens, UniProt Q9HA82); test: Inhibition of human CerS4
Sequence of Ceramide synthase 4 (Q9HA82 whole entry): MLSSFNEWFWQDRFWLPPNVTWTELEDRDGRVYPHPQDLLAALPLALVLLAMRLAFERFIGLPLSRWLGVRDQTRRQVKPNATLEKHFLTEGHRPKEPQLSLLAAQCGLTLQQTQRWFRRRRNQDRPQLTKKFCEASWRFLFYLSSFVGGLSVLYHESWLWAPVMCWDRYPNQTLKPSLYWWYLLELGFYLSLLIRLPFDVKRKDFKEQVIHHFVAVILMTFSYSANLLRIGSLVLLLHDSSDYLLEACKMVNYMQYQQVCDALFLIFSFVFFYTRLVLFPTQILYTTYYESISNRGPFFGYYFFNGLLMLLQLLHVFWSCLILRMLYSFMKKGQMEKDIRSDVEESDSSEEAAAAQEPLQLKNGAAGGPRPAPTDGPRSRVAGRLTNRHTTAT

[4] = molecular target: Ceramide synthase 5 (Mus musculus, UniProt Q9D6K9); test: Inhibition of mouse CerS5
Sequence of Ceramide synthase 5 (Q9D6K9 whole entry): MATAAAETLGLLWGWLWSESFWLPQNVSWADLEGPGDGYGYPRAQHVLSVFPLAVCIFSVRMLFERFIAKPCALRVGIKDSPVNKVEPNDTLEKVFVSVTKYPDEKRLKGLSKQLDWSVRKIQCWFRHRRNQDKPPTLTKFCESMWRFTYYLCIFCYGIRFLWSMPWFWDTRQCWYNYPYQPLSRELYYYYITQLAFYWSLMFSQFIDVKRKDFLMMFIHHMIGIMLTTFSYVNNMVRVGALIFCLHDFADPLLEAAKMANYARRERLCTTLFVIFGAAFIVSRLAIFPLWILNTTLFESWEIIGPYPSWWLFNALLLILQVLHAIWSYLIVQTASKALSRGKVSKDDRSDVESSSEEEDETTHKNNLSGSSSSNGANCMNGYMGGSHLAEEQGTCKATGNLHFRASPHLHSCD

[5] = molecular target: Ceramide synthase 6 (Homo sapiens, UniProt Q6ZMG9); test: Inhibition of human CerS6
Sequence of Ceramide synthase 6 (Q6ZMG9 whole entry): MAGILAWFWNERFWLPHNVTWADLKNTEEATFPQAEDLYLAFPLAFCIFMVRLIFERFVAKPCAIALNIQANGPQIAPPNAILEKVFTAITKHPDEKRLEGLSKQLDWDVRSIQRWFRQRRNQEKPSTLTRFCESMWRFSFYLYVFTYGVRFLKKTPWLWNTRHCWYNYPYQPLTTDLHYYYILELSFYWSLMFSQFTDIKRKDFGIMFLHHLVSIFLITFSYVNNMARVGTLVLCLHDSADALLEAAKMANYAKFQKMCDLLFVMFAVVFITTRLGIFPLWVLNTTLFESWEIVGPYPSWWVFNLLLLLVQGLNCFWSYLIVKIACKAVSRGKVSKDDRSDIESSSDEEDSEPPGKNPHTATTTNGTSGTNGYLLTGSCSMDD

[6] = Mixed type inhibition of human recombinant glucocerebrosidase at pH 6.7
[7] = Mixed type inhibition of human recombinant glucocerebrosidase at pH 5.6
[8] = Mixed type inhibition of human recombinant glucocerebrosidase at pH 4.3
[9] = Inhibition of rat plasma secretory SMase; assay type: cell-free
[10] = molecular target: T2, Sphingolipid delta(4)-desaturase DES1 (Rattus norvegicus, UniProt Q5XIF5); test: Inhibition of rat liver microsome DES1 assessed as inhibition constant incubated for 20 mins in presence of NADH by liquid scintillation counter method; assay type: microsomes
T2 sequence (Q5XIF5 whole entry): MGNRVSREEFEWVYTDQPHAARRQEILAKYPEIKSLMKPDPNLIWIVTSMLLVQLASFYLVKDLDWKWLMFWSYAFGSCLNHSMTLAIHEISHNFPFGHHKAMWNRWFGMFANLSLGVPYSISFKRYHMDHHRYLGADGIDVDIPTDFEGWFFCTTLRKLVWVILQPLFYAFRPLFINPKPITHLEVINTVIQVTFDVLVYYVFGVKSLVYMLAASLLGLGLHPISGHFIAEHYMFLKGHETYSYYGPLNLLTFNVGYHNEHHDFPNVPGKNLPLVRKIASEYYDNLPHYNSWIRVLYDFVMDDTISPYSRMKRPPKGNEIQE

[11] = molecular target: T2, Sphingolipid delta(4)-desaturase DES1; test: Inhibition of rat liver microsome DES1 incubated for 20 min in presence of NADH by liquid scintillation counter method; assay type: microsomes
[12] = molecular target: T3, Sphingolipid delta(4)-desaturase DES1 (Homo sapiens, UniProt O15121); test: Inhibition of DES1 (unknown origin)
T3 sequence (O15121 whole entry): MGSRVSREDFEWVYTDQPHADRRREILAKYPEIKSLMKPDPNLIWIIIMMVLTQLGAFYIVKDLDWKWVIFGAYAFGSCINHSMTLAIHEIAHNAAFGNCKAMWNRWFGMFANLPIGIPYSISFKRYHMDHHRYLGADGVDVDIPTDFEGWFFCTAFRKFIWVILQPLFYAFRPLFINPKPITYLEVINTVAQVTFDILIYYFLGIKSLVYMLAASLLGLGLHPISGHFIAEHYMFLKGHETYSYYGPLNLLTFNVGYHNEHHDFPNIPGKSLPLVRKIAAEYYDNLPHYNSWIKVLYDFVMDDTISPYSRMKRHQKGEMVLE

[13] = molecular target: T4, Sphingomyelin phosphodiesterase 2 (Rattus norvegicus, UniProt Q9ET64); test: Inhibition of rat brain microsomes nSMase assessed as inhibition constant; design: species or system Microsome
T4 sequence (Q9ET64 whole entry): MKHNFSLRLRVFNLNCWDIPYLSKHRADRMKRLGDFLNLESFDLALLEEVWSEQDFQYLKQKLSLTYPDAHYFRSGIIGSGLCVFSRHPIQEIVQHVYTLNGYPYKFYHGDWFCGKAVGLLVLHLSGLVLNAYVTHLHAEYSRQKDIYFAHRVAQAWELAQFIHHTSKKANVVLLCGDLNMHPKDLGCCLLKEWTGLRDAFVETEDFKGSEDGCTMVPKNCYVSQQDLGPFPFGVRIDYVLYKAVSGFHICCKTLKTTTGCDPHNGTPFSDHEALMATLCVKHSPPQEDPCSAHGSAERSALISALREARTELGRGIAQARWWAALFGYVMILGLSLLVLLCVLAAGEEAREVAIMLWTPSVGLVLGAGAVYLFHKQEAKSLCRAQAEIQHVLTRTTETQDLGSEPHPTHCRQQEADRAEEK

[14] = Inhibition of bovine brain microsomes nSMase; design: species or system Bos taurus, Microsome
[15] = Non-competitive inhibition of bovine brain microsomes nSMase assessed as inhibition constant; design: species or system Bos taurus, Microsome
[16] = molecular target: T2, Sphingolipid delta(4)-desaturase DES1; test: Inhibition of rat liver microsome DES1 incubated for 1 hr fluorescence based analysis; assay type: microsomes
[17] = molecular target: T3, Sphingolipid delta(4)-desaturase DES1; test: Inhibition of DES1 in human HGC-27 cell lysates; assay type: subcellular
[18] = molecular target: T3, Sphingolipid delta(4)-desaturase DES1; test: Binding affinity to DES1 in human HGC-27 cell lysates assessed as inhibition constant; assay type: subcellular
[19] = molecular target: T2, Sphingolipid delta(4)-desaturase DES1; test: Inhibition of rat liver microsome DES1 using N-octanoylsphinganine as substrate incubated for 30 mins; assay type: microsomes
[20] = Inhibition of Bacillus cereus nSMase
[21] = Inhibition of rat brain aSMase using HMU-PC as substrate incubated for 3 hrs by fluorescence based analysis; assay type: tissue-based
[22] = Competitive inhibition of rat brain aSMase assessed as inhibition constant; assay type: tissue-based
[23] = molecular target: Acetylcholinesterase (Homo sapiens, UniProt P22303); test: Inhibition of AChe (unknown origin)
Sequence of Acetylcholinesterase (P22303 whole entry): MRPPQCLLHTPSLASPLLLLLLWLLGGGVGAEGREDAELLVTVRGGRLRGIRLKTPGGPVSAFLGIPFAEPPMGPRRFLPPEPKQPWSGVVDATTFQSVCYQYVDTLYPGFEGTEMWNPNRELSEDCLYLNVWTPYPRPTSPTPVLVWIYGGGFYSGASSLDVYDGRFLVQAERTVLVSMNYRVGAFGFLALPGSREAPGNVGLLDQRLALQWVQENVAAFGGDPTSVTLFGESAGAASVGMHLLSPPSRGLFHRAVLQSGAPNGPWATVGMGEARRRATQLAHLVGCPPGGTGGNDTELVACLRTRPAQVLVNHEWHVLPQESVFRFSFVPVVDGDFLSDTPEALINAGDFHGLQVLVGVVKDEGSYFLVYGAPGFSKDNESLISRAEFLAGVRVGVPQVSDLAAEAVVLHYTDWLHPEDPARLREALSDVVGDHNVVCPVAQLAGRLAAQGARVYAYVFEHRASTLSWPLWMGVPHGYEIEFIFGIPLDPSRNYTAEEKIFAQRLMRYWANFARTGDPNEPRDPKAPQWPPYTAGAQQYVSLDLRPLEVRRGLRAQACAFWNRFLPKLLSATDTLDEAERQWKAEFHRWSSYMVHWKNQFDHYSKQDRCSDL

[24] = molecular target: T4, Sphingomyelin phosphodiesterase 2; test: Inhibition of rat brain nSMase; assay type: tissue-based
[25] = molecular target: Sphingomyelin phosphodiesterase (Homo sapiens, UniProt P17405); test: Inhibition of recombinant human aSMase assessed as inhibition constant
Sequence of Sphingomyelin phosphodiesterase (P17405 whole entry): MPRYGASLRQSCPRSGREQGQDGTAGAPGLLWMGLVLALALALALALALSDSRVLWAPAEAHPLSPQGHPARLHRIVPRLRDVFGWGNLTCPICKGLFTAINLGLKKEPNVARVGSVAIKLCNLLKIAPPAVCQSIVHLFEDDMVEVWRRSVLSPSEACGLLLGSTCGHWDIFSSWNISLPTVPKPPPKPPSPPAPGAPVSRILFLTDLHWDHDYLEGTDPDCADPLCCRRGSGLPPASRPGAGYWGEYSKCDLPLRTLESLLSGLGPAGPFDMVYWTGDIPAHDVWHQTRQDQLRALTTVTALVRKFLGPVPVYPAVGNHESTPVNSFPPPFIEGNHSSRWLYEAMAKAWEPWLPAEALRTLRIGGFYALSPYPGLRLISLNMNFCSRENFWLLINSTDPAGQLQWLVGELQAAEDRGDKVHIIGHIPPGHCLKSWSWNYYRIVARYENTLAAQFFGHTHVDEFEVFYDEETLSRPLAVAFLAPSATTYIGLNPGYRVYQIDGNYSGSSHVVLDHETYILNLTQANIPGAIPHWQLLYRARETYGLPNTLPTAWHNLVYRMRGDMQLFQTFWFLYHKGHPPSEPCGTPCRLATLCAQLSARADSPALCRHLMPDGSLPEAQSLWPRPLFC

[26] = molecular target: Sphingomyelin phosphodiesterase (Homo sapiens) (UniProt P17405); test: Inhibition of recombinant human aSMase at 5 uM relative to control
Sequence of Sphingomyelin phosphodiesterase (Homo sapiens) (P17405 whole entry): as above

[27] = molecular target: T3, Sphingolipid delta(4)-desaturase DES1; test: Noncompetitive inhibition of DES1 in human HGC-27 cell lysates assessed as inhibition constant; assay type: subcellular
[28] = molecular target: T1, Ceramide synthase 2; test: Inhibition of CerS2 in HPAC cells using DHSph as substrate; assay type: cell-based
[29] = molecular target: T1, Ceramide synthase 2; test: Competitive inhibition of CerS2 in HPAC cells using DHSph as substrate by LC/MS/MS analysis; assay type: cell-based
[30] = molecular target: Sphingomyelinase C (Bacillus cereus) (UniProt P11889); test: Inhibition of Bacillus cereus SMaseC at 100 uM relative to control
Sequence of Sphingomyelinase C (Bacillus cereus) (P11889 whole entry): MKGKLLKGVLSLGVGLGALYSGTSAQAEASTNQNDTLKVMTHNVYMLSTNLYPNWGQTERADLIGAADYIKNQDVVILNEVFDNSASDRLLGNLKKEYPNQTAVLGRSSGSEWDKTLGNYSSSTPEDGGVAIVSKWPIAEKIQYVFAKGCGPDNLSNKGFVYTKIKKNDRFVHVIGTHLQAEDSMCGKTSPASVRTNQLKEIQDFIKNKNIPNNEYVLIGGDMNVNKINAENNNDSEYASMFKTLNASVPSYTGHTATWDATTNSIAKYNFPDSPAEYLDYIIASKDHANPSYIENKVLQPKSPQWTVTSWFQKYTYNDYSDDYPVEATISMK

[31] = Inhibition of rat liver microsome Sphingosine N-acyltransferase assessed as inhibition of [3H]sphingosine to [3H]ceramide conversion incubated for 2 hrs; assay type: microsomes

IC50 [1]: 7 µM
IC50 [2]: 7 µM
IC50 [3]: 7 µM
IC50 [4]: 7 µM
IC50 [5]: 7 µM
SMILES: C[C@@](N)(CO)CCc1ccc(OCc2ccc(Cl)c(Cl)c2)cc1

Ki [10]: 8.28 µM
IC50 [11]: 2.32 µM
IC50 [12]: 0.1 µM
SMILES: CC1=C(/C=C/C(C)=C/C=C/C(C)=C/C(=O)Nc2ccc(O)cc2)C(C)(C)CCC1 [FENRETINIDE]

IC50 [20]: 5 µM
SMILES: O=c1[nH]c(=S)[nH]c(-c2ccccc2)c1Cc1c(O)ccc2ccccc12 [CAMBINOL]

IC50 [24]: 1 µM
SMILES: O=C(/C=C/c1ccc(/C=C/C(=O)Nc2ccc(C3=NCCN3)cc2)cc1)Nc1ccc(C2=NCCN2)cc1

Ki [27]: 0.3 µM
SMILES: Oc1ccc(Nc2nc(-c3ccc(Cl)cc3)cs2)cc1

inhibition [30]: 20%
SMILES: CCCCCCCCCCCCC/C=C/[C@@H](OCc1cccc(-c2ccccn2)n1)[C@H](CO)NC(=O)CCCCC

Further lines, the compound ahead of its results:

SMILES: Nc1c(Br)cc(Br)cc1CN[C@H]1CC[C@H](O)CC1 [AMBROXOL]
IC50 [6]: 8.1 µM
IC50 [7]: 31 µM
IC50 [8]: > 1100 µM

SMILES: COc1cc([C@H]2Oc3cc(O)cc(O)c3C[C@H]2OC(=O)c2cc(O)c(O)c(O)c2)cc(O)c1O
IC50 [9]: 1.7 µM

SMILES: COc1cc(O)c(C(=O)O)c(-c2cc(O)c(O)cc2C)c1 [ALTENUSIN]
Ki [13]: 20 µM

SMILES: CCCCCCCCCCCCCCCC(=O)N[C@H](CC(F)(F)P(=O)(O)O)[C@@H](O)c1ccccc1
IC50 [14]: 3.3 µM
Ki [15]: 1.6 µM

SMILES: CCCCCCCCCCCCCSC[C@@H](O)[C@H](CO)NC(=O)CCCCCCC
IC50 [16]: 8.2 µM

SMILES: CCCCCCCCCCCCCC1=C([C@@H](O)[C@H](CO)NC(=O)CCCCCCC)C1
IC50 [17]: 0.052 µM
Ki [18]: 0.022 µM
Ki [19]: 6 µM

SMILES: CCCCCCCCCCCCOS(=O)(=O)O[C@@H]1[C@H](O)[C@H](OP(=O)(O)O)[C@@H](O)[C@H](OP(=O)(O)O)[C@H]1O
IC50 [21]: 0.9 µM
Ki [22]: 0.42 µM

SMILES: CN1c2ccc(OC(=O)Nc3ccncc3)cc2[C@]2(C)CCO[C@H]12
IC50 [23]: 7 µM

SMILES: CCCCCCCC(=O)OC[C@H](COP(=O)(O)O[C@@H]1[C@H](O)[C@H](OP(=O)(O)O)[C@@H](O)[C@H](OP(=O)(O)O)[C@H]1O)OC(=O)CCCCCCC
Ki [25]: 0.53 µM
inhibition [26]: > 90%
IC50 [21]: 0.93 µM

SMILES: CCCCCCCCc1ccc(CCC(N)(CO)CO)cc1 [FINGOLIMOD]
IC50 [28]: 6.4 µM
Ki [29]: 2.15 µM

SMILES: CCCC[C@@H](C)[C@@H](OC(=O)C[C@@H](CC(=O)O)C(=O)O)[C@H](C[C@@H](C)C[C@H](O)CCCC[C@@H](O)C[C@H](O)[C@H](C)N)OC(=O)C[C@@H](CC(=O)O)C(=O)O
IC50 [31]: 0.1 µM
